One experiment has as its target T1, ALK (Homo sapiens, UniProt Q9UM73).
T1 construct: host or cells: baculovirus expression system
Put plainly: ALK Kinase Assay (ELISA/TRF, PLC-γ substrate). The format is biochemical. The note with it: read-out: ALK Potency. In a few lines: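 First, plates are coated with substrate (phospholipase C-γ, 10 μg/mL, TBS). Next, 30 ng/ml ALK initiates phosphorylation for 15 min at 37° C. Then Eu-N1 PT66 antibody is added for detection, and a nonlinear dose-response fit of percent inhibition yields IC50.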
(In general: An ELISA detects its analyte on a solid surface through an enzyme-linked reagent.)

The target in the next experiment is T2, JAK2 (Homo sapiens, UniProt O60674).
T2 construct: host or cells: baculovirus expression system
T2 sequence (O60674 whole entry): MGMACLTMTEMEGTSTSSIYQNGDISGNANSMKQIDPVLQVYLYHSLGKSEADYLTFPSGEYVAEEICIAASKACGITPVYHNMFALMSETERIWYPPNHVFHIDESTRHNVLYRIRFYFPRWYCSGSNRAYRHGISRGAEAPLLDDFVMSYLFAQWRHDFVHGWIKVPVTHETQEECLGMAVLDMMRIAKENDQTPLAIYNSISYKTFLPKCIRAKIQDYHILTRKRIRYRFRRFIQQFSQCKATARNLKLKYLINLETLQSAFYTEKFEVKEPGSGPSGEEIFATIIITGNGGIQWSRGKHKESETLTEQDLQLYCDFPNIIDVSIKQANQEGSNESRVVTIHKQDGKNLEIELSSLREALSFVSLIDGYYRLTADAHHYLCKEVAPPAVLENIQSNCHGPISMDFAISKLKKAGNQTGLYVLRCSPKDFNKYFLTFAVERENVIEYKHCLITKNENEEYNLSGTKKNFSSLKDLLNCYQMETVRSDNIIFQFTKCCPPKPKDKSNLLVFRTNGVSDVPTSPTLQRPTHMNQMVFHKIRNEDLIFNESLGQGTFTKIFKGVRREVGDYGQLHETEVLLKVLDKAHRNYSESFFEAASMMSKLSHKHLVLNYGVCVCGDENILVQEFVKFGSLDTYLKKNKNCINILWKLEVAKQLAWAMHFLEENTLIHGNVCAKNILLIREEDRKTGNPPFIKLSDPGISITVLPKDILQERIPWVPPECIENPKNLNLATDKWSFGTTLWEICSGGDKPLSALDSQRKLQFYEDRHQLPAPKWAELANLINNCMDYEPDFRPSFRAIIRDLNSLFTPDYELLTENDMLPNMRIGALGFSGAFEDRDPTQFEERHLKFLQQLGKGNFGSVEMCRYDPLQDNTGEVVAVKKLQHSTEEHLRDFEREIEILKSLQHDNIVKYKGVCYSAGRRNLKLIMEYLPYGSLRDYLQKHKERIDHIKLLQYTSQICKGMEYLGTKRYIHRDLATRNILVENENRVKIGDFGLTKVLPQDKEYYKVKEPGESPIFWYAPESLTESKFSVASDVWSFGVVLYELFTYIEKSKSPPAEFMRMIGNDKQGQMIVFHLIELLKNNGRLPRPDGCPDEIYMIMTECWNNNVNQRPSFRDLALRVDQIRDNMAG
The experiment in a line: Recombinant Human JAK2 Kinase Assay (TRF). The format is biochemical. The note with it: read-out: JAK2 Potency. In a few lines:
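Baculovirus-expressed JAK2 (15 ng/ml) phosphorylated a biotinylated 15-mer peptide captured on Neutravidin, in 20 mM HEPES pH 7.2, 0.2 μM ATP, 1 mM MnCl2, 0.1% BSA, 2.5% DMSO final, 20 min at room temperature. Phosphoproduct detected by time-resolved fluorescence with Eu-N1-labelled PY100 antibody.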

Setting [1] is: ALK kinase inhibition, 1 μM ATP.
The mark [2] stands for this setting: JAK2 kinase inhibition, 0.2 μM ATP.

Where two headings read alike, the source gives them in different places.

T1 sequence (Q9UM73 19-1620): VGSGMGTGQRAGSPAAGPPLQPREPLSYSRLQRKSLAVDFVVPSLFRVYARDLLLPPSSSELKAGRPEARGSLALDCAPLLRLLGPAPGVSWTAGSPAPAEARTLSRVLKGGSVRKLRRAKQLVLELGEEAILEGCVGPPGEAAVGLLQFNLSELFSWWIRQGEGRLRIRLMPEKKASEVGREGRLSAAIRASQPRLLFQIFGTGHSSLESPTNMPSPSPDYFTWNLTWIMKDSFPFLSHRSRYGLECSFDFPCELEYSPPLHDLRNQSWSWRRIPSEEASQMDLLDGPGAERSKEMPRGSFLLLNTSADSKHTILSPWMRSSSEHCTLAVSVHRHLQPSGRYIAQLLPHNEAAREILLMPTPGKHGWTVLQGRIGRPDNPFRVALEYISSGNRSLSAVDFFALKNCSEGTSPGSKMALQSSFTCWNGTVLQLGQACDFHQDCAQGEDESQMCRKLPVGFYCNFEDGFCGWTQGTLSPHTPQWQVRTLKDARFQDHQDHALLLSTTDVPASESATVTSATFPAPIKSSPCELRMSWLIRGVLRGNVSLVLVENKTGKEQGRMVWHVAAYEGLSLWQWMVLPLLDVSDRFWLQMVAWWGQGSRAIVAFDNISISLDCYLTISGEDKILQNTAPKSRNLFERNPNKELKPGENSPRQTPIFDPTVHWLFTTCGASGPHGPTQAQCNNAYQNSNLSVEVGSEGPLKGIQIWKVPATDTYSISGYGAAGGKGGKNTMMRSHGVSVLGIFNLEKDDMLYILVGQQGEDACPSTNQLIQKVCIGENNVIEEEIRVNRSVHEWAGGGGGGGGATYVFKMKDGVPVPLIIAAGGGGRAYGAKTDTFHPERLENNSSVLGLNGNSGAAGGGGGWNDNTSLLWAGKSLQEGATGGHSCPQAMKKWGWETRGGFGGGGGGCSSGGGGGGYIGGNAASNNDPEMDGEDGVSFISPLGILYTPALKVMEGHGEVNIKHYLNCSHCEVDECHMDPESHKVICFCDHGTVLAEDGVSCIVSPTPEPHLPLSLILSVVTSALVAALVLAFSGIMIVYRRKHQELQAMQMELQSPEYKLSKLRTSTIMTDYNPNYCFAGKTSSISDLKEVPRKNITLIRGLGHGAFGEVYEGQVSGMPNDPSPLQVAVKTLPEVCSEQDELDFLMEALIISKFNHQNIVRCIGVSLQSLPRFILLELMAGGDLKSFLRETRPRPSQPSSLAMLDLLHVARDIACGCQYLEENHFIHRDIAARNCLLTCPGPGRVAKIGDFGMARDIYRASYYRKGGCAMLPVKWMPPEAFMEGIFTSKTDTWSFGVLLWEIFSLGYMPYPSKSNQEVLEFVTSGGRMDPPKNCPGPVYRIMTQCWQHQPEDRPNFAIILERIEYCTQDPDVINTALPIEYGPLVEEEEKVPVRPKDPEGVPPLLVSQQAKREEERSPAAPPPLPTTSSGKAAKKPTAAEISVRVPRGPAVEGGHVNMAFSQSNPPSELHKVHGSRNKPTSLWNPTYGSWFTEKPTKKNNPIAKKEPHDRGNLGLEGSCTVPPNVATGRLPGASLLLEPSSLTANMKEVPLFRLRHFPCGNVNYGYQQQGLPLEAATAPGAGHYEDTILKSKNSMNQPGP

In the case of `COc1cc(N2CCCC(N3CCN(C)CC3)C2)ccc1Nc1ncc2ccc(-c3ccccc3OC)n2n1` (single isomer, unassigned) [Example 1441, {2-Methoxy-4-[3-(4-methyl-piperazin-1-yl)-piperidin-1-yl]-phenyl}-[7-(2-methoxy-phenyl)-pyrrolo[2,1-f][1,2,4]triazin-2-yl]-amine], the IC50 on ALK (ALK Kinase Inhibition) and on JAK2 (JAK2 Kinase Inhibition) was < 100 nM each time.
Take `COc1cc(N2CCC(N3CCOCC3)CC2)ccc1Nc1ncc2ccc(-c3ccccc3Cl)n2n1` [Example 1466, [7-(2-Chloro-phenyl)-pyrrolo[2,1-f][1,2,4]triazin-2-yl]-[2-methoxy-4-(4-morpholin-4-yl-piperidin-1-yl)-phenyl]-amine]: the IC50 on ALK (ALK Kinase Inhibition) and at JAK2 (JAK2 Kinase Inhibition) was < 100 nM throughout.
For the compound `NC(=O)c1cccc(Nc2ncc3ccc(-c4cccc(Cl)c4)n3n2)c1` [Example 165, 3-[7-(3-Chloro-phenyl)-pyrrolo[2,1-f][1,2,4]triazin-2-ylamino]-benzamide], the IC50 is 1000 to 10000 nM on ALK (ALK Kinase Inhibition) and < 100 nM on JAK2 (JAK2 Kinase Inhibition).
Turning to `COc1cc(N2CCC(CN3CCN(C)CC3)CC2)ccc1Nc1ncc2ccc(-c3ccccc3OC)n2n1` [Example 468, {2-Methoxy-4-[4-(4-methyl-piperazin-1-ylmethyl)-piperidin-1-yl]-phenyl}-[7-(2-methoxy-phenyl)-pyrrolo[2,1-f][1,2,4]triazin-2-yl]-amine], the IC50 at ALK (ALK Kinase Inhibition) is < 100 nM; at JAK2 (JAK2 Kinase Inhibition), 100 to 1000 nM.
On to `O=S(=O)(c1ccccc1)c1ccc2cnc(Nc3ccc(N4CCOCC4)cc3)nn12` [Example 111, (7-Benzenesulfonyl-pyrrolo[2,1-f][1,2,4]triazin-2-yl)-(4-morpholin-4-yl-phenyl)-amine], for which the IC50 at ALK (ALK Kinase Inhibition) was 100 to 1000 nM; at JAK2 (JAK2 Kinase Inhibition), < 100 nM.
Turning to `CCN(CC)C1CCN(c2ccc(Nc3ncc4ccc(-c5cccc(NS(=O)(=O)C(C)(C)C)c5)n4n3)cc2)CC1` [Example 1205, 2-Methyl-propane-2-sulfonic acid (3-{2-[4-(4-diethylamino-piperidin-1-yl)-phenylamino]-pyrrolo[2,1-f][1,2,4]triazin-7-yl}-phenyl)-amide], the IC50 is 100 to 1000 nM at ALK (setting [1]) and < 100 nM on JAK2 (setting [2]).
Take `c1cc(-c2ccc3cnc(Nc4ccc(N5CCOCC5)cc4)nn23)ccn1` [Example 4, (4-Morpholin-4-yl-phenyl)-(7-pyridin-4-yl-pyrrolo[2,1-f][1,2,4]triazin-2-yl)-amine]: the IC50 was 1000 to 10000 nM on ALK (ALK Kinase Inhibition) and < 100 nM at JAK2 (JAK2 Kinase Inhibition).
Take `CN(C)Cc1ccccc1-c1ccc2cnc(Nc3ccc(N4CCOCC4)cc3)nn12` [Example 1035, [7-(2-Dimethylaminomethyl-phenyl)-pyrrolo[2,1-f][1,2,4]triazin-2-yl]-(4-morpholin-4-yl-phenyl)-amine]: the IC50 at ALK (setting [1]) was 1000 to 10000 nM; on JAK2 (setting [2]), 100 to 1000 nM.
As to `COc1cccc(F)c1-c1ccc2cnc(Nc3ccc(C4CCN(CC(N)=O)CC4)cc3)nn12` [Example 1353, 2-(4-{4-[7-(2-Fluoro-6-methoxy-phenyl)-pyrrolo[2,1-f][1,2,4]triazin-2-ylamino]-phenyl}-piperidin-1-yl)-acetamide], the IC50 on ALK (setting [1]) and at JAK2 (setting [2]) was < 100 nM each time.
`CN(c1ccccc1-c1ccc2cnc(Nc3ccc4ncn(CCN5CCOCC5)c4c3)nn12)S(C)(=O)=O` [Example 1336, N-Methyl-N-(2-{2-[3-(2-morpholin-4-yl-ethyl)-3H-benzimidazol-5-ylamino]-pyrrolo[2,1-f][1,2,4]triazin-7-yl}-phenyl)-methanesulfonamide]: the IC50 was 1000 to 10000 nM on ALK (setting [1]) and < 100 nM at JAK2 (setting [2]).
Regarding `Cc1nc2ccc(Nc3ncc4ccc(-c5cccc(S(=O)(=O)NC(C)(C)C)c5)n4n3)cc2s1` [Example 572, N-tert-Butyl-3-[2-(2-methyl-benzothiazol-6-ylamino)-pyrrolo[2,1-f][1,2,4]triazin-7-yl]-benzenesulfonamide], the IC50 was > 10000 nM on ALK (setting [1]) and < 100 nM at JAK2 (setting [2]).
